Values joined by “and” are separate entries in the source; they are usually repeats but may differ in a detail not shown here. Equal entries are not always repeated. Where two headings read alike, the source gives them in different places.
Legend:
[1] = bevacizumab; cited from earlier work
[2] = test system: NCI-H2122 (KRAS^G12C) NSCLC xenograft; experiment: Anti-tumor efficacy in NCI-H2122 NSCLC xenograft tumor model; format: in vivo, nude mice
Description: Anti-VEGFA 620.4.1.1 (Mu anti-VEGFA 620.4.1.1; hereafter referred to as anti-VEGF) was a solution in Histidine Buffer ([…], 0.02% Tween 20™, pH5.5). […] The anti-gD isotype control (Hu anti-gD 5B6; hereafter referred to as Isotype Control) was a solution in saline. […] The mice were housed in standard rodent micro-isolator cages and were acclimated to study conditions at least 3 days before tumor cell implantation. Only animals that appeared to be healthy and that were free of obvious abnormalities were used for the study. Human non-small lung carcinoma NCI-H2122 cells were obtained from the American Type Culture Collection (Rockville, MD) and harbor a G12C oncogenic mutation in K-RAS. […] Mice were distributed into four groups based on tumor volumes with n=10 mice per group. […] The isotope control and anti-VEGF antibodies were administered intravenously (IV) at 10 mg/kg for the first dose, and then dosed intraperitoneally (IP) at 5 mg/kg for subsequent doses on a twice weekly (BIW) schedule. Tumor sizes and mouse body weights were recorded twice weekly over the course of the study. […] Fred V. Fowler Co.; Newton, MA) and analyzed using Excel, version 14.2.5 (Microsoft Corporation; Redmond WA). […] A generalized additive mixed model (GAMM) was employed to analyze transformed tumor volumes over time as this approach addresses both repeated measurements from the same study subjects and modest dropouts before study end (Lin et al. Wiley Online Library; 1999; 61:381-400 and Liang Biometrical Journal. Wiley Online Library; 2005; 47:358-68). […] Estimates of efficacy were obtained by calculating the percent difference between the daily average baseline-corrected AUC of the relevant group fits on the original (i.e., untransformed) scale over a common time period.

[3] = test system: KRAS^G12C-positive cancer cell lines; experiment: Growth inhibition of KRAS^G12C-positive versus KRAS^G12C-negative cancer cell lines; format: cell-based
[4] = Risks associated with administration of study drugs; format: in vivo; conditions: Compound 1
Description: Risks Associated with Compound 1.
Risks Associated with Bevacizumab.

[5] = number of mice of n=10, same dosing, 21 days

Compound	risks associated with administration [1]	% TGI (estimated) ([2]; NCI-H2122 xenografts in nude mice, n=10, Compound 1 50 mg/kg PO QD, anti-VEGF 10 mg/kg IV first dose then 5 mg/kg IP BIW, 21 days, based on AUC, relative to vehicle controls) [%]	mice showing reductions in initial tumor size ([2]; initial tumor response, n=10 per group) [%]	TI (tumor incidence) ([2]; n=10 per group, same dosing, 21 days)	CR (complete responses, 100% decrease in tumor volume) [2, 5]	PR (partial responses, >50% decrease from the initial tumor volume) [2, 5]	anti-tumor effect in words ([2]; single agent treatment)	mice showing increases in tumor volume ([2]; within the first week of treatment, of 10 mice)	selectivity in growth inhibition for KRAS^G12C-positive over KRAS^G12C-negative cancer cell lines [3]	risks associated with administration [4]
Bevacizumab: recombinant humanized anti-VEGF monoclonal antibody generated according to Presta et al.	gastrointestinal perforations, surgery and wound healing complications, hemorrhage	–	–	–	–	–	–	–	–	–
C=CC(=O)N1CCN(c2nc(OC[C@@H]3CCCN3C)nc3c(F)c(-c4nc(N)cc(C)c4C(F)(F)F)c(Cl)cc23)[C@@H](C)C1 (atropisomer, axis not shown) [Compound 1]	–	98	50	10/10	0	2/10 and 2	tumor stasis	5/10	over 20,000 fold	diarrhea, nausea, vomiting, oral mucosal irritation, minimal to mild transaminase elevation, and phototoxicity

From patent US12016862B2, “Methods and compositions comprising a KRasG12C inhibitor and a VEGF inhibitor for treating solid tumors” (Genentech, Inc., priority 2020, dated 2024)
